Measured values as given in patent publication US5990094A, “Inhibitors of sorotonin N-acetyltransferase” (The Rockefeller University, priority 1998, dated 1999).
Values belong to the molecule of their own block, whether it stands above or below them.

What was measured:
[1] = people; cited from earlier work
[2] = system: intracellular receptors for melatonin; details: intracellular orphan receptors vs G-protein family; cited from earlier work
GST-AANAT = target: T1, GST-AANAT (Ovis aries, UniProt Q29495); assay: Effect of DTNB on GST-AANAT activity; type: biochemical, sheep
T1 construct: The entire open reading frame of the DNA encoding sheep AANAT in the plasmid vector pET15b; made in house; host or cells: Escherichia coli BL21(DE3)pLysS
Method: The potential difficulty with this approach was that reducing agents such as dithiothreitol and β-mercaptoethanol react with DTNB (Ellman's reagent). Indeed, GST-AANAT is somewhat unstable in the absence of reducing agents, losing greater than 50% activity within 2 h at 4° C. (data not shown). However, the enzyme was stable within the short incubation periods used in these studies (less than 3 min). It was shown unequivocally that CoASH generation was coupled tightly to N-acetyltryptamine formation, and the activity was linear with time and enzyme concentration.

AANAT = details: 2-fluorohistidine replaces histidine; cited from earlier work

T1 sequence (Q29495 other isoform, or with tags, fused parts or gaps): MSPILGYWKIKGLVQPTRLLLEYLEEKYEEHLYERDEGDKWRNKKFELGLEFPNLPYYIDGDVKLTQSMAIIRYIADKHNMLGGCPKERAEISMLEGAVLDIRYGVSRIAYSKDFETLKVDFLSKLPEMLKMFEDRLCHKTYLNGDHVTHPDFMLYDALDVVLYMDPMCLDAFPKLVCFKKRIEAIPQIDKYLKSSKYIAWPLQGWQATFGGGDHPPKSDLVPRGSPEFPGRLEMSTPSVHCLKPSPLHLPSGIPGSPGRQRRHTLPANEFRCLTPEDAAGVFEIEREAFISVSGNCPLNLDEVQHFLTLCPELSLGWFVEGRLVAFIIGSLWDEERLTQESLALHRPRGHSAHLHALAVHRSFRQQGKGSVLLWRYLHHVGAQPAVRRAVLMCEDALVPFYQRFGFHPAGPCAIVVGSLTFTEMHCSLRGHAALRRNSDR

Compound: COc1ccc2[nH]cc(CCNC(C)=O)c2c1 [Melatonin, 5-methoxy-N-acetyltryptamine]
oral bioavailability variability [1]: 25 fold range | Kd of binding and activation, higher compared to G-protein family receptors [2]: 10-100 fold

effect on GST-AANAT activity (GST-AANAT): inhibited GST-AANAT activity
Compound: O=C(O)c1cc(SSc2ccc([N+](=O)[O-])c(C(=O)O)c2)ccc1[N+](=O)[O-] [DTNB, 5,5'-dithiobis-(2-nitrobenzoic acid]

Compound: N[C@@H](Cc1c[nH]c(F)n1)C(=O)O [2-fluorohistidine]
induction of AANAT in the pineal (AANAT): induction of AANAT in the pineal is blocked
